Like-named read-outs stand apart in the source and are kept apart here.

Holding throughout (type): cell-based
Assay [1] has as its target KDR (phospho-KDR, VEGF165-stimulated HUVEC cells) (Homo sapiens (Human), UniProt P35968). As to the kind of experiment: KDR autophosphorylation ELISA in HUVEC cells (Example G). Conditions: cellular activity; KDR autophosphorylation ELISA in HUVEC cells. The method in brief: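 HUVEC cells, serum-starved 24 h, were treated 1 h with an 8-point compound dilution (0.3% DMSO) and then stimulated with 100 ng/mL VEGF165 for 5 min. Phospho-KDR in lysates was quantified by sandwich ELISA against a phospho-KDR standard. IC50 from a 4-parameter logistic fit, normalised between stimulated DMSO and unstimulated controls.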
(In general: An ELISA detects its analyte on a solid surface through an enzyme-linked reagent.)

Assay [2] addresses Mer (phospho-Mer, MERTK-transfected 293A cells) (Homo sapiens (Human), UniProt Q12866). As to the kind of experiment: Mer autophosphorylation ELISA in transient transfected 293A cells (Example H). Conditions: cellular activity. The method in brief:
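Inhibition of cellular Mer autophosphorylation is determined in 293A cells transiently expressing human MERTK after 1 h compound exposure (8 concentrations, serum-free, 0.3% DMSO). Phospho-Mer in clarified lysates is measured by ELISA, with DMSO and reference-inhibitor wells defining the 100% and 0% activity limits.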

In assay [3] the target is AXL (phospho-AXL, Gas6-stimulated A-172 glioblastoma cells) (Homo sapiens (Human), UniProt P30530). As to the kind of experiment: AXL autophosphorylation ELISA in A-172 cells (Example E). Conditions: cellular activity, read-out: Axl IC50. As for the experimental part:
A-172 cells were incubated at 37° C., 5% CO2 for 24 h and then starved for 24 h in serum-free medium. Test compounds were serially diluted to produce an 8-point dose curve in fresh serum-free medium to a final concentration of 0.3% DMSO (vehicle) and added to the cells and incubated for 1 h. […] Lysates were collected and 100 μL/well added into the human phospho-AXL DuoSet IC ELISA (R&D Systems #DYC2228-2). […] Positive control wells (100% activity) contained Gas6-stimulated, DMSO-treated cell lysates. Negative control wells (0% activity) contained Gas6-stimulated, reference inhibitor-treated cell lysates. IC50 values were calculated by nonlinear regression analysis using a 4-parameter logistic curve fit in ActivityBase XE (IDBS).

The target of assay [4] is Met (phospho-Met, HGF-stimulated PC-3 prostate cancer cells) (Homo sapiens (Human), UniProt P08581). Nature of the assay: Met autophosphorylation ELISA in PC-3 cells (Example F). To be noted: cellular activity, read-out: c-Met IC50. The method in brief:
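IC50 values derive from a 4-parameter logistic fit of phospho-Met (panTyr) sandwich ELISA signals in PC-3 lysates, scaled between DMSO and reference-inhibitor wells. Cells, starved 3 h in serum-free medium, had 1 h compound exposure (8 doses, 0.3% DMSO) before 10 min stimulation with 100 ng/mL HGF.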

[5] abbreviates: Mer autophosphorylation ELISA in transient transfected 293A cells.
Where [6] appears, read: AXL autophosphorylation ELISA in A-172 cells.
The mark [7] stands for this setting: Met autophosphorylation ELISA in PC-3 cells.

Met (phospho-Met, HGF-stimulated PC-3 prostate cancer cells), sequence (P08581 25-1390): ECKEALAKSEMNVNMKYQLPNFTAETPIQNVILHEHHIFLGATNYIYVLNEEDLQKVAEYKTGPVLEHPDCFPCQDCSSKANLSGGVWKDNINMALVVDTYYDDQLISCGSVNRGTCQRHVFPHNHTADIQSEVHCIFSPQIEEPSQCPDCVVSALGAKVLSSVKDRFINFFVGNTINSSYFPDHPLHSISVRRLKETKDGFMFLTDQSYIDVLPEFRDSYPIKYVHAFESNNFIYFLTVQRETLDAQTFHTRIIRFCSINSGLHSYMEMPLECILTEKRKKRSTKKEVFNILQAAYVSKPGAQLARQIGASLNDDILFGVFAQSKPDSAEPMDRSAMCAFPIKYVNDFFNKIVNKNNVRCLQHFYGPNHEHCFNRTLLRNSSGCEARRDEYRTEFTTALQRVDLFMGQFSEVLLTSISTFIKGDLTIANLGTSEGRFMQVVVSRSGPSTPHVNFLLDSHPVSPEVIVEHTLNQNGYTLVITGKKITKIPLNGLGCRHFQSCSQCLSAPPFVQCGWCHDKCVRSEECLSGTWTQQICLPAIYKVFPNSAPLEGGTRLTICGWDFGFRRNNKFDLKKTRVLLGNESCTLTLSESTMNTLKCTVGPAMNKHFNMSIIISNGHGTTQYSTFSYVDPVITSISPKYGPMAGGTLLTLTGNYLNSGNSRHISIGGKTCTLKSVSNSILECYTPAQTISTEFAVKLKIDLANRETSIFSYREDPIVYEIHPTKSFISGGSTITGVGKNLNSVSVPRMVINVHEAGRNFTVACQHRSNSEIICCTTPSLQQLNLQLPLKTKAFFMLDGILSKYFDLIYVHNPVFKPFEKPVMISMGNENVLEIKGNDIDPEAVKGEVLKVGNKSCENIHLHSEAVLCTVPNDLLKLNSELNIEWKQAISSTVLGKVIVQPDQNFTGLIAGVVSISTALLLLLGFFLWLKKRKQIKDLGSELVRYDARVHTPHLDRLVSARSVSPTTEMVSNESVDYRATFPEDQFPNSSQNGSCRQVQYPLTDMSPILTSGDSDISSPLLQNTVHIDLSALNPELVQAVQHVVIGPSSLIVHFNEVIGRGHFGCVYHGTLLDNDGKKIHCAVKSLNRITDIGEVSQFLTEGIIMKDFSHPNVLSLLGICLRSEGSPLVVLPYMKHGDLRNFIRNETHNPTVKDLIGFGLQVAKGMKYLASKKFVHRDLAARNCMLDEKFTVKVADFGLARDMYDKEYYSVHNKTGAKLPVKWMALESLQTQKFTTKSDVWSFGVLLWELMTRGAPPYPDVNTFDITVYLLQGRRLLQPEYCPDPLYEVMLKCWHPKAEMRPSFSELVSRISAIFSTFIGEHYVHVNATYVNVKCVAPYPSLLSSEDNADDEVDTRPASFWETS
Mer (phospho-Mer, MERTK-transfected 293A cells), sequence (Q12866 21-999): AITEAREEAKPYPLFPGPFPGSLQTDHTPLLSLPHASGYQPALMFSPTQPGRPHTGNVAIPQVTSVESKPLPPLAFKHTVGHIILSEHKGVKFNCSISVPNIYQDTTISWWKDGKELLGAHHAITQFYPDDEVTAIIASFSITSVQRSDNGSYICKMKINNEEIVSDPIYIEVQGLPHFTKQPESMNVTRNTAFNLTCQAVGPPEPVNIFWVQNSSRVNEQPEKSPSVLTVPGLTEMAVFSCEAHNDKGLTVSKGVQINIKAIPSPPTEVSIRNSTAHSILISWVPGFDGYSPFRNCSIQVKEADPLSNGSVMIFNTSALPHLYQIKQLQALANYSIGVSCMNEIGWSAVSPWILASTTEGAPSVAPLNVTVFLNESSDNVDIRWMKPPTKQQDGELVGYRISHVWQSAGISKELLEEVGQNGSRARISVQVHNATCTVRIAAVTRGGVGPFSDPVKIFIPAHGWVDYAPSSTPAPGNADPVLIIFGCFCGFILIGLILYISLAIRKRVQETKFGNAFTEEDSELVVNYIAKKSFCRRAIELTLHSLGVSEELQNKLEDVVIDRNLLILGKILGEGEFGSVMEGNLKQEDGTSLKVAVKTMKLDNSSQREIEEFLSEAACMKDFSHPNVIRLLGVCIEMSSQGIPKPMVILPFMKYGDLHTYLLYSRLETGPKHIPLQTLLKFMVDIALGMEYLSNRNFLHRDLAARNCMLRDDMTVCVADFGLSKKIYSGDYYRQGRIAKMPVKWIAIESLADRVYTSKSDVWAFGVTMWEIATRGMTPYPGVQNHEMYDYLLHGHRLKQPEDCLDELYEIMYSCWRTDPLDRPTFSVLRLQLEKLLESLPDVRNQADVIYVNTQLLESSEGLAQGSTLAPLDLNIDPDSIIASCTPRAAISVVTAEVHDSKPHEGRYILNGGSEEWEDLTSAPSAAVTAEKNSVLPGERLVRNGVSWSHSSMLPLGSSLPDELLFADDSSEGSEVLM
AXL (phospho-AXL, Gas6-stimulated A-172 glioblastoma cells), sequence (P30530 26-894): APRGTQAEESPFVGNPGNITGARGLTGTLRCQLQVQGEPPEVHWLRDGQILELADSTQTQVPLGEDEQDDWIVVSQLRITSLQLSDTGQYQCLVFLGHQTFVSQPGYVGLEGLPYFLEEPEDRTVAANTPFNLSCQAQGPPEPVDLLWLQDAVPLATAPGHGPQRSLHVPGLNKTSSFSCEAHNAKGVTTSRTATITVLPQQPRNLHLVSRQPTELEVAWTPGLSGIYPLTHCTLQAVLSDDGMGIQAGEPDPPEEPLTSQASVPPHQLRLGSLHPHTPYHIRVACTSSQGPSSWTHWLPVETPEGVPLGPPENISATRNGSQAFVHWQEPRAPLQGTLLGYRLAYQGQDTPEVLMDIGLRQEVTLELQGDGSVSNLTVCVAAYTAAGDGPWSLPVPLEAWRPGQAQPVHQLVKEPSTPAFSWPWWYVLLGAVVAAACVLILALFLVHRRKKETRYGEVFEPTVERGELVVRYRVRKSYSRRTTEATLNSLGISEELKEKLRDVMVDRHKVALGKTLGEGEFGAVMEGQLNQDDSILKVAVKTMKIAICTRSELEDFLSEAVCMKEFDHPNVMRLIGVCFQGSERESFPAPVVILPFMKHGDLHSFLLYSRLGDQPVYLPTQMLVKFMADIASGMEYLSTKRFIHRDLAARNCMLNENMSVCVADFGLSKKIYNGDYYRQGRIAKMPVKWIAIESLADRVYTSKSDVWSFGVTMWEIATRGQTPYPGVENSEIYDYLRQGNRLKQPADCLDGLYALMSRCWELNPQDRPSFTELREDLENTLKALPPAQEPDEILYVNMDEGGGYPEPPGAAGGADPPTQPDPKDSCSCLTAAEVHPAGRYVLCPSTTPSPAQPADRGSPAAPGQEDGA
KDR (phospho-KDR, VEGF165-stimulated HUVEC cells), sequence (P35968 20-1356): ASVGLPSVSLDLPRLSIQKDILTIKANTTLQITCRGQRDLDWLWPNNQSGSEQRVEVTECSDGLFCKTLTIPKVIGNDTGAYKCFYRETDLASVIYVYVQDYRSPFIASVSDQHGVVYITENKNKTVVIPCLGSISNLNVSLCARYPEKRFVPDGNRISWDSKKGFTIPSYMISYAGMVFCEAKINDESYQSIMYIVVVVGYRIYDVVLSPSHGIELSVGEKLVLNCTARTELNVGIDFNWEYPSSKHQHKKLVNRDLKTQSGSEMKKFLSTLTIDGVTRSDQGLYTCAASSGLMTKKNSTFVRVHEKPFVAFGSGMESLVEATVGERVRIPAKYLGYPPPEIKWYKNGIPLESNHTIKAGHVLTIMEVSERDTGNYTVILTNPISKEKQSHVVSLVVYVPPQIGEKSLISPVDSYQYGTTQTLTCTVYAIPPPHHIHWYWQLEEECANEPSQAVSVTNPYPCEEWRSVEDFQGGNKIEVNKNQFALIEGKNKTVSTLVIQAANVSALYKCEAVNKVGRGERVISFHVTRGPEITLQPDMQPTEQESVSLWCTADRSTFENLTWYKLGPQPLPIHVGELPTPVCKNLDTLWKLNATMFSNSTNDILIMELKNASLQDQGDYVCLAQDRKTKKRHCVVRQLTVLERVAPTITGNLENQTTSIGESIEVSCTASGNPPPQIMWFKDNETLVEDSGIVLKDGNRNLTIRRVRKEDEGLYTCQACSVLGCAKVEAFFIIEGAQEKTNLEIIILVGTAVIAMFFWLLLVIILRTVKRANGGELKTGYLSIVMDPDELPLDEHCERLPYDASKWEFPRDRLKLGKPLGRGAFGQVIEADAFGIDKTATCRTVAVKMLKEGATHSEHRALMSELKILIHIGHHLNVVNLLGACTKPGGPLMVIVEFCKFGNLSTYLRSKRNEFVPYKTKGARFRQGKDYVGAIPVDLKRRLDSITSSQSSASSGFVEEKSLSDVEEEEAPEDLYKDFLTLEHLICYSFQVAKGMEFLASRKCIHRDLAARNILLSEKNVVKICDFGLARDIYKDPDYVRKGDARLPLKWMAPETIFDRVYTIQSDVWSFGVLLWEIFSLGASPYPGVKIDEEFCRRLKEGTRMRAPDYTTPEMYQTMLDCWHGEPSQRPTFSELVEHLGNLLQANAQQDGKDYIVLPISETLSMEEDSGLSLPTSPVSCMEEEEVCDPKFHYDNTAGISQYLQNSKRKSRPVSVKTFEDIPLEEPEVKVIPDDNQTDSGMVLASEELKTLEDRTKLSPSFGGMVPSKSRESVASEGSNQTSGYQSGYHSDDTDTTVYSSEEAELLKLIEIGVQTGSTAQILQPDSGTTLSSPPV

For the molecule `COc1cc2nccc(Oc3ccc(NC(=O)c4c(Cl)n(C)c(C)c(-c5ccc(F)cc5)c4=O)cc3F)c2nc1OC` [Compound 647, 2-chloro-N-[4-[(6,7-dimethoxy-1,5-naphthyridin-4-yl)oxy]-3-fluorophenyl]-5-(4-fluorophenyl)-1,6-dimethyl-4-oxopyridine-3-carboxamide], the IC50 in assay [1] is above 0.3 µM; in assay [2] (setting [5]), below 0.1 µM; in assay [3] (setting [6]) it was below 0.1 µM; in assay [4] (setting [7]), below 0.1 µM.

On to `COCCOc1cc2ncnc(Oc3ccc(NC(=O)c4ccc(C)n(-c5ccc(F)cc5)c4=O)cc3F)c2nc1OC` [Compound 638, N-[3-fluoro-4-[6-methoxy-7-(2-methoxyethoxy)pyrido[3,2-d]pyrimidin-4-yl]oxyphenyl]-1-(4-fluorophenyl)-6-methyl-2-oxopyridine-3-carboxamide], for which the IC50 in assay [1], in assay [2] (setting [5]), in assay [3] (setting [6]) and in assay [4] (setting [7]) was below 0.1 µM in each case.

For the molecule `Cn1cc(C(=O)Nc2ccc(Oc3ccnc4cccnc34)c(F)c2)c(=O)c(-c2ccc(F)cc2)c1CO` [Compound 748, N-[3-fluoro-4-(1,5-naphthyridin-4-yloxy)phenyl]-5-(4-fluorophenyl)-6-(hydroxymethyl)-1-methyl-4-oxopyridine-3-carboxamide], the half-maximal inhibitory concentration (IC50) in assay [1] is above 0.3 µM; in assay [2] (setting [5]), below 0.1 µM; in assay [3] (setting [6]), below 0.1 µM; in assay [4] (setting [7]), below 0.1 µM.

Consider `COc1cnc2c(Oc3ccc(NC(=O)c4c(C)ccn(-c5ccc(F)cc5C)c4=O)cc3F)ccnc2c1` [Compound 334, N-[3-fluoro-4-[(7-methoxy-1,5-naphthyridin-4-yl)oxy]phenyl]-1-(4-fluoro-2-methylphenyl)-4-methyl-2-oxopyridine-3-carboxamide], for which the half-inhibitory concentration (IC50) in assay [1] is below 0.1 µM; in assay [2] (setting [5]), below 0.1 µM; in assay [3] (setting [6]) it was 0.1 to 0.3 µM; in assay [4] (setting [7]) it was below 0.1 µM.

In the case of `COc1cc2nccc(Oc3ccc(NC(=O)c4c(C)ncc(-c5ccc(F)c(F)c5)c4O)cc3F)c2nc1OC` [Compound 796, 5-(3,4-difluorophenyl)-N-[4-[(6,7-dimethoxy-1,5-naphthyridin-4-yl)oxy]-3-fluorophenyl]-4-hydroxy-2-methylpyridine-3-carboxamide], the IC50 in assay [1], in assay [2] (setting [5]), in assay [3] (setting [6]) and in assay [4] (setting [7]) was below 0.1 µM each time.

With `COc1cc2nccc(Oc3ccc(NC(=O)c4c(C)c(Br)c(C)n(-c5ccc(F)cc5)c4=O)cc3)c2nc1OC` [Compound 313, 5-Bromo-N-[4-[(6,7-dimethoxy-1,5-naphthyridin-4-yl)oxy]phenyl]-1-(4-fluorophenyl)-4,6-dimethyl-2-oxopyridine-3-carboxamide], the IC50 in assay [1], in assay [2] (setting [5]), in assay [3] (setting [6]) and in assay [4] (setting [7]) was below 0.1 µM each time.

As for `COc1cc2nccc(Oc3ccc(NC(=O)c4c(C)[nH]nc(-c5ccc(F)cc5C)c4=O)cc3F)c2nc1OC` [Compound 738, N-[4-[(6,7-dimethoxy-1,5-naphthyridin-4-yl)oxy]-3-fluorophenyl]-3-(4-fluoro-2-methylphenyl)-6-methyl-4-oxo-1H-pyridazine-5-carboxamide], the IC50 in assay [1], in assay [2] (setting [5]), in assay [3] (setting [6]) and in assay [4] (setting [7]) was below 0.1 µM in each case.

Turning to `COCCOc1cc2nccc(Oc3ccc(NC(=O)c4c(C)cc(C)n(-c5ccc(F)cc5)c4=O)cc3F)c2nc1OC` [Compound 485, N-[3-fluoro-4-[[6-methoxy-7-(2-methoxyethoxy)-1,5-naphthyridin-4-yl]oxy]phenyl]-1-(4-fluorophenyl)-4,6-dimethyl-2-oxopyridine-3-carboxamide], the concentration for half-maximal inhibition (IC50) in assay [1], in assay [2] (setting [5]), in assay [3] (setting [6]) and in assay [4] (setting [7]) was below 0.1 µM throughout.

Turning to `COc1cc2nccc(Oc3ccc(NC(=O)c4cnc(C5CC5)c(-c5ccc(F)cc5)c4O)cc3F)c2nc1OC` [Compound 662, 6-cyclopropyl-N-[4-[(6,7-dimethoxy-1,5-naphthyridin-4-yl)oxy]-3-fluorophenyl]-5-(4-fluorophenyl)-4-hydroxypyridine-3-carboxamide], the IC50 in assay [1] was 0.1 to 0.3 µM; in assay [2] (setting [5]), below 0.1 µM; in assay [3] (setting [6]) it was below 0.1 µM; in assay [4] (setting [7]), below 0.1 µM.

Take `CCOc1c(C(=O)Nc2ccc(Oc3ccnc4cc(OC)c(OC)cc34)c(F)c2)nnc(C)c1-c1ccc(F)cc1` [Compound 572, N-[4-(6,7-Dimethoxyquinolin-4-yl)oxy-3-fluorophenyl]-4-ethoxy-5-(4-fluorophenyl)-6-methylpyridazine-3-carboxamide]: the concentration for half-maximal inhibition (IC50) in assay [1], in assay [2] (setting [5]), in assay [3] (setting [6]) and in assay [4] (setting [7]) was below 0.1 µM each time.

For `COc1cc2nccc(Oc3ccc(NC(=O)c4c(C)c(C(N)=O)c(C)n(-c5ccc(F)cc5)c4=O)cc3F)c2nc1OC` [Compound 318, 5-N-[4-[(6,7-Dimethoxy-1,5-naphthyridin-4-yl)oxy]-3-fluorophenyl]-1-(4-fluorophenyl)-2,4-dimethyl-6-oxopyridine-3,5-dicarboxamide], the half-maximal inhibitory concentration (IC50) in assay [1] was above 0.3 µM; in assay [2] (setting [5]), below 0.1 µM; in assay [3] (setting [6]), below 0.1 µM; in assay [4] (setting [7]), below 0.1 µM.

For `COc1cnc2c(Oc3ccc(NC(=O)c4c(C)c(F)c(C)n(-c5ccc(F)cc5)c4=O)cc3F)ccnc2c1` [Compound 326, 5-Fluoro-N-[3-fluoro-4-[(7-methoxy-1,5-naphthyridin-4-yl)oxy]phenyl]-1-(4-fluorophenyl)-4,6-dimethyl-2-oxopyridine-3-carboxamide], the IC50 in assay [1] is 0.1 to 0.3 µM; in assay [2] (setting [5]), below 0.1 µM; in assay [3] (setting [6]), below 0.1 µM; in assay [4] (setting [7]), below 0.1 µM.

As for `COCCOc1cc2nccc(Oc3ccc(NC(=O)c4c(C)ccn(-c5ccc(F)cc5)c4=O)cc3)c2nc1OC` [Compound 704, 1-(4-fluorophenyl)-N-[4-[[6-methoxy-7-(2-methoxyethoxy)-1,5-naphthyridin-4-yl]oxy]phenyl]-4-methyl-2-oxopyridine-3-carboxamide], the IC50 in assay [1], in assay [2] (setting [5]), in assay [3] (setting [6]) and in assay [4] (setting [7]) was below 0.1 µM throughout.

Regarding `COc1cc2nccc(Oc3ccc(NC(=O)c4c5c(cn(-c6ccc(F)cc6)c4=O)C(=O)CCC5)cc3)c2nc1OC` [Compound 360, N-[4-[(6,7-dimethoxy-1,5-naphthyridin-4-yl)oxy]phenyl]-2-(4-fluorophenyl)-3,8-dioxo-6,7-dihydro-5H-isoquinoline-4-carboxamide], the IC50 in assay [1] is above 0.3 µM; in assay [2] (setting [5]), below 0.1 µM; in assay [3] (setting [6]), below 0.1 µM; in assay [4] (setting [7]) it was 0.1 to 0.3 µM.

`COc1cnc2c(Oc3ccc(NC(=O)c4cn(CC(F)F)c(C)c(-c5ccc(F)cc5)c4=O)cc3F)ccnc2c1` [Compound 625, 1-(2,2-Difluoroethyl)-N-[3-fluoro-4-[(7-methoxy-1,5-naphthyridin-4-yl)oxy]phenyl]-5-(4-fluorophenyl)-6-methyl-4-oxopyridine-3-carboxamide]: the IC50 in assay [2] (setting [5]), in assay [3] (setting [6]) and in assay [4] (setting [7]) was below 0.1 µM in each case.

Consider `COc1nc2c(Oc3ccc(NC(=O)c4cn(C)c(C)c(-c5ccc(F)cc5)c4=O)cc3F)ccnc2cc1N` [Compound 803, N-[4-[(7-amino-6-methoxy-1,5-naphthyridin-4-yl)oxy]-3-fluorophenyl]-5-(4-fluorophenyl)-1,6-dimethyl-4-oxopyridine-3-carboxamide], for which the IC50 in assay [2] (transfected 293A cells), in assay [3] (A-172 cells) and in assay [4] (PC-3 cells) was below 0.1 µM each time.

Take `COCc1nc(C)c(-c2ccc(F)cc2F)c(O)c1C(=O)Nc1ccc(Oc2ccnc3cc(OC)c(OC)nc23)c(F)c1` [Compound 212, 5-(2,4-Difluorophenyl)-N-[4-[(6,7-dimethoxy-1,5-naphthyridin-4-yl)oxy]-3-fluorophenyl]-4-hydroxy-2-(methoxymethyl)-6-methylpyridine-3-carboxamide]: the IC50 in assay [2] (setting [5]), in assay [3] (setting [6]) and in assay [4] (setting [7]) was below 0.1 µM in each case.

Broadly, the IC50 is the midpoint of a concentration-inhibition curve.

These data come from patent publication US12371428B2 (Exelixis, Inc., priority 2019, dated 2025).
